Source: patent publication US9073961B2, “Substitution derivatives of N6 -benzyladenosine-5′-monophosphate, methods of preparation thereof, use thereof as medicaments, and therapeutic preparations containing these compounds” (UNIVERZITA PALACKEHO V OLOMOUCI, priority 2010, dated 2015)

How the values were obtained:
[1] = system: HOS (human osteogenic sarcoma); assay: Calcein AM cytotoxicity assay, HOS; assay type: cell-based; details: 72 hours incubation
How it was run: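 Cells pre-incubated 24 h at 37 °C, 5% CO2, then exposed 72 h to six 3-fold dilutions of compound (top 166.7 μM), in triplicate. Calcein AM added to 1 μg/ml final; fluorescence read after 1 h. GI50 is the concentration giving 50% reduction of esterase activity, taken from dose-response curves.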

Human lymphocytes = assay: Immunosuppressive activity, 3H-thymidine incorporation in concanavalin A activated lymphocytes; assay type: cell-based; details: 72 hours, [3H]-TdR incorporation, read-out: Human lymphocytes ED50
How it was run: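 Ficoll-separated peripheral blood mononuclear cells from healthy donors, stimulated with concanavalin A and exposed to six 4-fold compound dilutions (top 266.7 μM) for 72 h at 37 °C. Proliferation read by 6 h [3H]-thymidine pulse and scintillation counting; ED50 taken from dose-response curves versus control wells.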

EC50 (Human lymphocytes): 6.7 µM
Compound: O=P(O)(O)OC[C@H]1O[C@@H](n2cnc3c(NCc4ccccc4O)ncnc32)[C@H](O)[C@@H]1O [Compound 21, 6-(2-hydroxybenzylamino)purine riboside-5′-monophosphate]
GI50 [1]: 2.5 µM
